From patent US10709720B2, “Human milk oligosaccharides for modulating inflammation” (priority 2010, dated 2020)
In brackets after ≈: the same amount, converted by molar mass. Entries after “also recorded” stand apart in the source; their conditions may differ.

Legend:
[1] = system: H1N1 influenza virus; assay: microbe, parasite or virus in culture; format: cell-based
[2] = system: interleukin 10 (IL-10); assay: IL-10 in supernatants of HMO-pretreated peripheral blood mononuclear cells with or without RSV (Example 39); format: cell-based, human; settings: in the presence or absence of RSV
Procedure: Specifically, either 3′SL or 6′SL is added, at concentrations of 0.1 mg/mL, 0.2 mg/mL, or 0.5 mg/mL to fresh peripheral blood mononuclear cells and incubated at 37° C. in 5% CO2 to pretreat the cells for approximately 24 hours. LNnT is added, at concentrations of 0.1 mg/mL, 0.2 mg/mL, or 1 mg/mL to fresh peripheral blood mononuclear cells and incubated at 37° C. in 5% CO2 to pretreat the cells for approximately 24 hours. Lactose is included as a carbohydrate control. Matched endotoxin unit concentration controls are included to allow differentiation of ingredient effects from inherent low levels of endotoxin. Some variables are then incubated with RSV at a multiplicity of infection (MOI) of 0.1 for approximately 1 hour at 37° C. in 5% in CO2. Uninfected control variables are incubated with medium for approximately 1 hour at 37° C. in 5% CO2. […]
Cytokines are measured in supernatants for each variable at 24 and 48 hours to assess the effects of HMOs on the early immune response to RSV. Cytokines are measured using custom Bio-Plex Human cytokine kits from Bio-Rad. […] A positive correlation exists between RSV clinical disease severity in children (as measured by: length of hospital stay, fever, and number of days supplemental O2 is required) and serum IP-10. […]

[3] = system: interferon-inducible protein 10 (IP-10); assay: IP-10 in supernatants of HMO-pretreated, RSV-infected peripheral blood mononuclear cells (Example 39); format: cell-based, human; settings: for IP-10 in virus-infected variables: 24 hour pretreatment, both donors, 24 and 48 hours post-infection; for IP-10 level reached compared with uninfected controls / effectiveness at dampening virus-induced inflammation (decrease in IP-10) compared with 3′SL: RSV-infected PBMCs; for reducing inflammation caused by RSV: pretreatment for 24 hours
Procedure: (§1) Specifically, either 3′SL or 6′SL is added, at concentrations of 0.1 mg/mL, 0.2 mg/mL, or 0.5 mg/mL to fresh peripheral blood mononuclear cells and incubated at 37° C. in 5% CO2 to pretreat the cells for approximately 24 hours. LNnT is added, at concentrations of 0.1 mg/mL, 0.2 mg/mL, or 1 mg/mL to fresh peripheral blood mononuclear cells and incubated at 37° C. in 5% CO2 to pretreat the cells for approximately 24 hours. Lactose is included as a carbohydrate control. Matched endotoxin unit concentration controls are included to allow differentiation of ingredient effects from inherent low levels of endotoxin. Some variables are then incubated with RSV at a multiplicity of infection (MOI) of 0.1 for approximately 1 hour at 37° C. in 5% in CO2. Uninfected control variables are incubated with medium for approximately 1 hour at 37° C. in 5% CO2. After approximately one hour, fresh medium alone, or fresh medium containing the appropriate concentration of 3′SL, 6′SL, LNnT, lactose, or endotoxin is added to the appropriate tubes and the cells are incubated for 48 hours at 37° C. in 5% CO2. Supernatants are collected at 24 and 48 hours post-infection.
(§2) Cytokines are measured in supernatants for each variable at 24 and 48 hours to assess the effects of HMOs on the early immune response to RSV. Cytokines are measured using custom Bio-Plex Human cytokine kits from Bio-Rad. Results for interferon-inducible protein 10 (IP-10, also known as CXCL 10) are shown in FIGS. 3 and 4 for 3′SL and 6′SL, and in FIGS. 5 and 6 for LNnT. IP-10 is a CXC chemokine that attracts, binds to and activates the CXCR3 receptor on natural killer cells and memory T cells. IP-10 is expressed by monocytes and a number of other cells, and is induced by interferon. A positive correlation exists between RSV clinical disease severity in children (as measured by: length of hospital stay, fever, and number of days supplemental O2 is required) and serum IP-10. Therefore, a decrease in IP-10 signals a decrease in severity of RSV disease experienced.

[4] = system: respiratory syncytial virus (RSV); assay: in vitro inhibition of viral infectivity, co-incubation of virus with HMO (Example 36); format: cell-based; settings: virus dose about 500-1,000 units/mL; HMOs added at 1 mg/mL or 10 mg/mL
Procedure: In this Example, the effect of purified human milk oligosaccharides (HMO) on in vitro inhibition of viral infectivity is analyzed.
Samples are prepared by co-incubation of a uniform virus dose of from about 500 units/mL to about 1,000 units/mL of one of three respiratory viruses: (1) respiratory syncytial virus (RSV); (2) human parainfluenza virus (HPIV3); or (3) H1N1 influenza virus with one of the following HMOs: (1) 3′-sialyllactose (3′SL); (2) 6′-sialyllactose (6′SL); (3) 3′-fucosyllactose (3′FL); (4) 2′-fucosyllactose (2′FL); (5) lacto-N-neotetraose (LNnT); or (6) sialic acid (SA). The HMOs are added at concentrations of either 1 mg/mL or 10 mg/mL.

[5] = system: monocyte-derived cytokines; assay: monocyte-derived cytokines in supernatants of HMO-treated peripheral blood mononuclear cells (Example 39); format: cell-based, human
Procedure: as §1, §2

[6] = system: human parainfluenza virus (HPIV3); assay: microbe, parasite or virus in culture; format: cell-based; settings: virus dose about 500-1,000 units/mL, HMOs added at 1 mg/mL or 10 mg/mL
[7] = system: Interleukin 8 (IL-8); assay: IL-8 in supernatants of PBMCs treated with 3′SL and/or 6′SL with or without RSV (Example 40); format: cell-based, human; settings: in the presence of RSV (MOI 0.1); individual 0.1-0.5 mg/mL, combinations 0.2-1.0 mg/mL total; FIG. 11
Procedure: In this example, the combination of 3′SL and 6′SL to reduce the inflammatory cytokine IL-8 in vitro is analyzed.
Specifically, 3′SL and 6′SL are added individually at concentrations of 0.1 mg/mL, 0.2 mg/mL, or 0.5 mg/mL or in combination (Combo 1=1 part 3′SL to 1 part 6′SL; Combo 2=1 part 3′SL to 2 parts 6′SL), at total concentrations of 0.2 mg/mL, 0.4 mg/mL, or 1.0 mg/mL to fresh peripheral blood mononuclear cells (PBMCs) and incubated at 37° C. in 5% CO2 to pretreat the cells for approximately 24 hours. Lactose is included as a carbohydrate control. Matched endotoxin unit concentration controls are included to allow differentiation of ingredient effects from inherent low levels of endotoxin. After approximately 24 hours, some variables are then incubated with RSV at a multiplicity of infection (MOI) of 0.1 for approximately 1 hour at 37° C. in 5% in CO2. Uninfected control variables are incubated with medium for approximately 1 hour at 37° C. in 5% CO2. […] Cytokines are measured in supernatants for each variable at 24 and 48 hours to assess the effects of the 3′SL and/or the 6′SL on the early immune response to RSV. Cytokines are measured using custom Bio-Plex Human cytokine kits from Bio-Rad. […]

[8] = system: H1N1 influenza virus; assay: organism not typed; format: cell-based; settings: HMO at 10 mg/mL, MDCK cells, FIG. 1
[9] = virus dose about 500-1,000 units/mL, HMOs added at 1 mg/mL or 10 mg/mL
[10] = in the presence or absence of the virus

Row | SMILES | IC50 (mg HMO/mL) H1N1 Influenza [1, 9] [mg HMO/mL] | IL-10 concentration [2] | IP-10 in virus-infected variables ([3]; RSV MOI 0.1) | IP-10 level reached compared with uninfected controls [3] | effectiveness at dampening virus-induced inflammation (decrease in IP-10) compared with 3′SL [3] | reducing inflammation caused by RSV [3] | IC50 (mg HMO/mL) RSV [4] [mg HMO/mL] | immunomodulation: induces and/or modifies production of monocyte-derived cytokines [5, 10] | anti-viral activity against H1N1 influenza virus ([1]; HMO at 1 mg/mL) | IC50 (mg HMO/mL) HPIV3 [6] [mg HMO/mL] | RSV-induced IP-10, Donor B ([3]; RSV MOI 0.1, 0.1-0.5 mg/mL, Donor B) | RSV-induced IP-10, Donor E ([3]; RSV MOI 0.1, 0.1-0.5 mg/mL, Donor E) | IL-8 concentration with increasing HMO concentration [7] | inhibition of virus infectivity [8] | immunomodulation: induces and/or modifies production of monocyte-derived cytokines ([5]; in the absence of the virus) | IC50 ([1]; Influenza A virus, H1N1, virus dose about 500-1,000 units/mL, HMOs added at 1 mg/mL or 10 mg/mL, read-out: IC50 (mg HMO/mL) H1N1 Influenza) [µg/mL] | IC50 ([6]; Human respirovirus 3, read-out: IC50 (mg HMO/mL) HPIV3) [µg/mL] | inhibition at 10000 µg/mL ([8]; read-out: inhibition of virus infectivity) [%]
1 | CC(=O)N[C@H]1[C@H](O[C@H]2[C@@H](O)[C@@H](CO)O[C@@H](O[C@H]3[C@H](O)[C@@H](O)C(O)O[C@@H]3CO)[C@@H]2O)O[C@H](CO)[C@@H](O[C@@H]2O[C@H](CO)[C@H](O)[C@H](O)[C@H]2O)[C@@H]1O (mixture of isomers) [LNnT, lacto-N-neotetraose] | >10 | increases IL-10 concentration in a dose-dependent manner | clearly downregulates IP-10 | reduce IP-10 to levels found in uninfected controls | more effective than 3′SL | effective in reducing inflammation caused by RSV | >10 | immunomodulatory | – | – | – | – | – | – | – | – | – | –
2 | CC(=O)N[C@H]1[C@H]([C@H](O)[C@H](O)CO)O[C@@](O[C@H]2[C@@H](O)[C@@H](CO)O[C@@H](O[C@H]3[C@H](O)[C@@H](O)C(O)O[C@@H]3CO)[C@@H]2O)(C(=O)O)C[C@@H]1O (some centres unmarked) [3′SL, 3′-sialyllactose] | ~5 | – | dampen RSV-induced IP-10 | – | – | effective in reducing inflammation caused by RSV | >10 | immunomodulatory | inhibited | >10 | not effective | downregulates RSV-induced IP-10 | increase IL-8 | – | – | – | – | –
3 | CC(=O)N[C@H]1[C@H]([C@H](O)[C@H](O)CO)O[C@@](OC[C@H]2O[C@@H](O[C@H]3[C@H](O)[C@@H](O)[C@H](O)O[C@@H]3CO)[C@H](O)[C@@H](O)[C@H]2O)(C(=O)O)C[C@@H]1O [6′SL, 6′-sialyllactose] | ~10 | increases interleukin 10 (IL-10) concentration in a dose-dependent manner | clearly downregulates IP-10 | reduce IP-10 to levels found in uninfected controls | more effective at downregulation of IP-10; also recorded: more effective than 3′SL | effective in reducing inflammation caused by RSV | >10 | – | – | >10 | – | – | increase IL-8 | approximately 60% | immunomodulatory | – | – | –
4 | CC(=O)N[C@H]1[C@H]([C@H](O)[C@H](O)CO)OC(O)(C(=O)O)C[C@@H]1O (some centres unmarked) [SA, sialic acid] | – | – | – | – | – | – | – | – | – | – | – | – | – | – | – | ~5000 (≈ 16.2 mM) | ~2000 (≈ 6.47 mM) | > 90
